This assay concerns the target T1, COX-2.
T1 construct: gene PTGS2; COX Activity Assay Kit (Cayman); species inferred from usual Cayman COX-2 (human recombinant; ovine possible); docking used PDB 3LN1
Put plainly: COX peroxidase activity kit, TMPD oxidation at […] nm. The format is biochemical. The following applies: DMSO; triplicate.

A word on the IC50: it is the point on the concentration scale where inhibition reaches its midpoint.

`O=C(C[C@H](O)C1(c2cccc(O)c2O)Oc2cccc3cccc(c23)O1)OC[C@H](O)CO` [compound 1, (8S)-(22R)-2,3-dihydroxypropyl-3-(2-(2,3-dihydroxyphenyl)naphtho[1,8-de][1,3]dioxin-2-yl)-3-hydroxypropanoate] showed a half-maximal inhibitory concentration (IC50) of 300 nM.
